35 compounds from patent US9221822B2, “Thiazolopyrimidine modulators as immunosuppressive agents” (Katholieke Universiteit Leuven, K.U.Leuven R&D, priority 2009, dated 2015) can be followed below.

In this test the test system is Human peripheral blood mononuclear cells (PBMCs) as Responder cells, RPMI 1788 Stimulator cells. Kind of test: Mixed Lymphocyte Reaction (MLR) test. The test is classed as cell-based. The conditions noted are these: Homo sapiens, RPMI-1788, lowest concentration giving 50% inhibition of the MLR; 6 days coculture, 3H-thymidine incorporation. In a few lines:
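Human PBMC responders (0.12×10^6) were cocultured 6 days with mitomycin C-treated RPMI 1788 stimulators (0.045×10^6) and compound in RPMI 1640 with 10% FCS, in triplicate. A ^3H-thymidine pulse on day 5, harvested 18 h later, measured proliferation (cpm), converted to % inhibition versus a compound-free MLR.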
Background: Incorporation of labelled thymidine or its analogues reports DNA synthesis.
In the case of `Nc1nc(N2CCC(C(=O)c3ccccc3)CC2)c2cc(-c3ccc(F)cc3)sc2n1` [Example 348, (1-(2-amino-6-(4-fluorophenyl)thieno[2,3-d]pyrimidin-4-yl)piperidin-4-yl)(phenyl)methanone], the IC50 (commonly the concentration that inhibits the measured activity by half) was 8270 nM.
In turn, `Nc1nc(N2CCN(C(=O)COc3ccc(Cl)cc3)CC2)c2ccsc2n1` [Example 351, 1-(4-(2-aminothieno[2,3-d]pyrimidin-4-yl)piperazin-1-yl)-2-(4-chlorophenoxy)ethanone] registered an IC50 of 1230 nM.
For `O=C(COc1ccc(Cl)cc1)N1CCN(c2nc(-c3ccccc3)nc3sc(-c4ccc(F)cc4)cc23)CC1` [Example 352, 2-(4-chlorophenoxy)-1-(4-(6-(4-fluorophenyl)-2-phenylthieno[2,3-d]pyrimidin-4-yl)piperazin-1-yl)ethanone], the IC50 is over 10000 nM.
On to `CCOC(=O)c1nc(N2CCN(C(=O)COc3ccc(Cl)cc3)CC2)c2cc(-c3ccc(F)cc3)sc2n1` [Example 353, ethyl 4-(4-(2-(4-chlorophenoxy)acetyl)piperazin-1-yl)-6-(4-fluorophenyl)thieno[2,3-d]pyrimidine-2-carboxylate], for which the IC50 is over 10000 nM.
The same measure for `NC(=O)c1nc(N2CCN(C(=O)COc3ccc(Cl)cc3)CC2)c2cc(-c3ccc(F)cc3)sc2n1` [Example 355, 4-(4-(2-(4-chlorophenoxy)acetyl)piperazin-1-yl)-6-(4-fluorophenyl)thieno[2,3-d]pyrimidine-2-carboxamide]: over 10000 nM; for `O=C(O)c1nc(N2CCN(C(=O)COc3ccc(Cl)cc3)CC2)c2cc(-c3ccc(F)cc3)sc2n1` [Example 357, 4-(4-(2-(4-chlorophenoxy)acetyl)piperazin-1-yl)-6-(4-fluorophenyl)thieno[2,3-d]pyrimidine-2-carboxylic acid]: over 10000 nM.
The compound `Cc1cccc(NC(=O)N2CCN(c3nc(N)nc4sc(-c5ccc(F)cc5)cc34)CC2)c1` [Example 359, 4-(2-amino-6-(4-fluorophenyl)thieno[2,3-d]pyrimidin-4-yl)-N-m-tolylpiperazine-1-carboxamide] had an IC50 of 2800 nM.
Regarding `COc1ccc(OCC(=O)N2CCN(c3nc(N)nc4sc(-c5ccccc5)cc34)CC2)cc1` [Example 369, 1-(4-(2-amino-6-phenylthieno[2,3-d]pyrimidin-4-yl)piperazin-1-yl)-2-(4-methoxyphenoxy)ethanone], the IC50 was found to be 72 nM.
Compound `Nc1nc(N2CCN(C(=O)COc3ccc(F)cc3)CC2)c2cc(-c3ccccc3)sc2n1` [Example 370, 1-(4-(2-amino-6-phenylthieno[2,3-d]pyrimidin-4-yl)piperazin-1-yl)-2-(4-fluorophenoxy)ethanone] had an IC50 of 66 nM.
Consider `Cc1cccc(OCC(=O)N2CCN(c3nc(N)nc4sc(-c5ccccc5)cc34)CC2)c1` [Example 371, 1-(4-(2-amino-6-phenylthieno[2,3-d]pyrimidin-4-yl)piperazin-1-yl)-2-(m-tolyloxy)ethanone], for which inhibition was half-maximal at 210 nM (IC50).
For `Nc1nc(N2CCN(C(=O)COc3ccc(Br)cc3)CC2)c2cc(-c3ccccc3)sc2n1` [Example 372, 1-(4-(2-amino-6-phenylthieno[2,3-d]pyrimidin-4-yl)piperazin-1-yl)-2-(4-bromophenoxy)ethanone], half-maximal inhibition (IC50) was put at 320 nM.
To `CC(C)(Oc1ccc(Cl)cc1)C(=O)N1CCN(c2nc(N)nc3sc(-c4ccccc4)cc23)CC1` [Example 373, 1-(4-(2-amino-6-phenylthieno[2,3-d]pyrimidin-4-yl)piperazin-1-yl)-2-(4-chlorophenoxy)-2-methylpropan-1-one] belongs 6920 nM.
Compound `Nc1nc(N2CCN(C(=O)COc3ccc(Cl)cc3)CC2)c2nc(-c3ccc(F)cc3)[nH]c2n1` [Example 389, 1-(4-(2-amino-8-(4-fluorophenyl)-9H-purin-6-yl)piperazin-1-yl)-2-(4-chlorophenoxy)ethanone] showed an IC50 of 810 nM.
Compound `COc1ccc(-c2nc3c(N4CCN(C(=O)COc5ccc(Cl)cc5)CC4)nc(N)nc3[nH]2)cc1OC` [Example 390, 1-(4-(2-amino-8-(3,4-dimethoxyphenyl)-9H-purin-6-yl)piperazin-1-yl)-2-(4-chlorophenoxy)ethanone] displayed an IC50 of 530 nM.
Take `Nc1nc(N2CCN(C(=O)COc3ccc(Cl)cc3)CC2)c2nc(-c3ccc(Br)cc3)[nH]c2n1` [Example 391, 1-(4-(2-amino-8-(4-bromophenyl)-9H-purin-6-yl)piperazin-1-yl)-2-(4-chlorophenoxy)ethanone]: the IC50 turned out to be 260 nM.
`Nc1nc(N2CCN(C(=O)COc3ccc(Cl)cc3)CC2)c2nc(-c3ccc(Cl)cc3)[nH]c2n1` [Example 392, 1-(4-(2-amino-8-(4-chlorophenyl)-9H-purin-6-yl)piperazin-1-yl)-2-(4-chlorophenoxy)ethanone] showed an IC50 of 540 nM.
`Nc1nc(N2CCN(C(=O)COc3ccc(Cl)cc3)CC2)c2nc(-c3cccc(Cl)c3)[nH]c2n1` [Example 393, 1-(4-(2-amino-8-(3-chlorophenyl)-9H-purin-6-yl)piperazin-1-yl)-2-(4-chlorophenoxy)ethanone] showed an IC50 of 660 nM.
Turning to `Nc1nc(N2CCN(C(=O)COc3ccc(Cl)cc3)CC2)c2nc(-c3ccc(C(F)(F)F)cc3)[nH]c2n1` [Example 394, 1-(4-(2-amino-8-(4-(trifluoromethyl)phenyl)-9H-purin-6-yl)piperazin-1-yl)-2-(4-chlorophenoxy)ethanone], inhibition was half-maximal at 630 nM (IC50).
Consider `Nc1nc(N2CCN(C(=O)COc3ccc(Cl)cc3)CC2)c2nc(-c3ccc(OC(F)(F)F)cc3)[nH]c2n1` [Example 395, 1-(4-(2-amino-8-(4-(trifluoromethoxy)phenyl)-9H-purin-6-yl)piperazin-1-yl)-2-(4-chlorophenoxy)ethanone], for which the IC50 is over 10000 nM.
To `Cc1ccc(-c2nc3c(N4CCN(C(=O)COc5ccc(Cl)cc5)CC4)nc(N)nc3[nH]2)cc1` [Example 396, 1-(4-(2-amino-8-p-tolyl-9H-purin-6-yl)piperazin-1-yl)-2-(4-chlorophenoxy)ethanone] belongs 470 nM; to `CCCc1nc2c(N3CCN(C(=O)COc4ccc(Cl)cc4)CC3)nc(N)nc2[nH]1` [Example 397, 1-(4-(2-amino-8-propyl-9H-purin-6-yl)piperazin-1-yl)-2-(4-chlorophenoxy)ethanone], 940 nM.
The same measure for `Nc1nc(N2CCN(C(=O)COc3ccc(Cl)cc3)CC2)c2nc(C3CC3)[nH]c2n1` [Example 398, 1-(4-(2-amino-8-cyclopropyl-9H-purin-6-yl)piperazin-1-yl)-2-(4-chlorophenoxy)ethanone]: 430 nM; for `CC(C)(C)c1nc2c(N3CCN(C(=O)COc4ccc(Cl)cc4)CC3)nc(N)nc2[nH]1` [Example 399, 1-(4-(2-amino-8-tert-butyl-9H-purin-6-yl)piperazin-1-yl)-2-(4-chlorophenoxy)ethanone]: 6310 nM; for `Cc1nc2c(N3CCN(C(=O)COc4ccc(Cl)cc4)CC3)nc(N)nc2[nH]1` [Example 400, 1-(4-(2-amino-8-methyl-9H-purin-6-yl)piperazin-1-yl)-2-(4-chlorophenoxy)ethanone]: 450 nM.
Compound `Nc1nc(N2CCN(C(=O)COc3ccccc3)CC2)c2nc(-c3ccc(F)cc3)[nH]c2n1` [Example 401, 1-(4-(2-amino-8-(4-fluorophenyl)-9H-purin-6-yl)piperazin-1-yl)-2-phenoxyethanone] showed an IC50 of 1090 nM.
`COc1cccc(C(=O)N2CCN(c3nc(N)nc4[nH]c(-c5ccc(F)cc5)nc34)CC2)c1` [Example 402, (4-(2-amino-8-(4-fluorophenyl)-9H-purin-6-yl)piperazin-1-yl)(3-methoxyphenyl)methanone] yielded an IC50 of over 10000 nM.
To `Nc1nc(N2CCN(C(=O)Cc3cccs3)CC2)c2nc(-c3ccc(F)cc3)[nH]c2n1` [Example 403, 1-(4-(2-amino-8-(4-fluorophenyl)-9H-purin-6-yl)piperazin-1-yl)-2-(thiophen-2-yl)ethanone] belongs 7080 nM; to `Nc1nc(N2CCN(C(=O)c3ccc(Cl)cc3)CC2)c2nc(-c3ccc(F)cc3)[nH]c2n1` [Example 404, (4-(2-amino-8-(4-fluorophenyl)-9H-purin-6-yl)piperazin-1-yl)(4-chlorophenyl)methanone], over 10000 nM.
The same measure for `Nc1nc(N2CCN(S(=O)(=O)Cc3ccccc3)CC2)c2nc(-c3ccc(F)cc3)[nH]c2n1` [Example 405, 6-(4-(benzylsulfonyl)piperazin-1-yl)-8-(4-fluorophenyl)-9H-purin-2-amine]: over 10000 nM; for `Nc1nc(N2CCN(C(=O)c3cccc4ccccc34)CC2)c2nc(-c3ccc(F)cc3)[nH]c2n1` [Example 406, (4-(2-amino-8-(4-fluorophenyl)-9H-purin-6-yl)piperazin-1-yl)(naphthalen-1-yl)methanone]: 6400 nM; for `CC(=O)N1CCN(c2nc(N)nc3[nH]c(-c4ccc(F)cc4)nc23)CC1` [Example 408, 1-(4-(2-amino-8-(4-fluorophenyl)-9H-purin-6-yl)piperazin-1-yl)ethanone]: over 10000 nM.
To `Nc1nc(N2CCN(c3nccs3)CC2)c2nc(-c3ccc(F)cc3)[nH]c2n1` [Example 409, 8-(4-fluorophenyl)-6-(4-(thiazol-2-yl)piperazin-1-yl)-9H-purin-2-amine] belongs 7470 nM; to `Nc1nc(N2CCN(CC(=O)N3CCCC3)CC2)c2nc(-c3ccc(F)cc3)[nH]c2n1` [Example 410, 2-(4-(2-amino-8-(4-fluorophenyl)-9H-purin-6-yl)piperazin-1-yl)-1-(pyrrolidin-1-yl)ethanone], over 10000 nM; to `Nc1nc(N2CCN(CC(=O)N3CCOCC3)CC2)c2nc(-c3ccc(F)cc3)[nH]c2n1` [Example 411, 2-(4-(2-amino-8-(4-fluorophenyl)-9H-purin-6-yl)piperazin-1-yl)-1-morpholinoethanone], over 10000 nM.
For `Nc1nc(N2CCN(CC(=O)Nc3cccnc3)CC2)c2nc(-c3ccc(F)cc3)[nH]c2n1` [Example 412, 2-(4-(2-amino-8-(4-fluorophenyl)-9H-purin-6-yl)piperazin-1-yl)-N-(pyridin-3-yl)acetamide], the midpoint of inhibition, the IC50, lay at 8610 nM.
